Values belong to the compound of their own block, whether it stands above or below them.
Tests used:
[1] = Permeation through dialysis membrane (iontophoresis side-by-side diffusion cells); assay type: in vitro ADME
Procedure: Ionotophoresis side-by side diffusion cells with 9 mm diameter opening were obtained from PermeGear. The current clamps with PC control were provided by NuPathe, Inc. The temperature controller was from Henke. 2.0 mm diameter Zinc and Silver were obtained from Alpha Aesar. Sumatriptan, Zolmitriptan and Rizatriptan wore provided by NuPathe. Sodium chloride was obtained from Fisher Scientific,
A donor solution of 4% sumatriptan succinate in 0.9% NaCl was prepared. The receiver solution was 0.9% Sodium chloride in water. A Millipore 1000 mw cutoff membrane were used as the membrane. The glossy side of the membrane faced the donor compartment. The volume of the donor and receiver solution was 3.0 ml. 0.5 mm zinc wire was placed in the donor compartment and 2.0 mm silver wire was placed in the receiver compartment. The temperature of the apparatus was maintained at 33° C.
Ketoprofen was obtained from Spectrum Chemical. A 2% ketoprofen donor solution was made by dissolving in 0.1 N NaOH.
Three cells were clamped at 2 mAmps/cm^2 (1.27 mAmp/cell), 3 cells were clamped at 2 mAmp/cm^2 with the electrodes reversed, 3 cells (the control cells) were not clamped.
At each sampling point 2 ml was withdrawn from the receiver compartment and was replaced with 0.9% Sodium Chloride. Each sample was diluted using 0.9% NaCl to be within the standard curve. Absorbance was measured using a UV spectrophotometer with a 1 cm quartz cuvette at 282 nm. […]

[2] = cited from earlier work
[3] = Permeation of compound through human cadaver skin (iontophoresis, drug solutions); assay type: in vitro ADME; settings: 2 mAmp/cm^2, 2% zolmitriptan, 4% rizatriptan, 4% sumatriptan solutions (FIG. 5)
Procedure: Human cadaver skin was obtained from Allosource. The skin was maintained at −70° C. prior to use. A portion of skin was thawed in 0.9% NaCl solution for 30 minutes. The skin was towel dried and cut into 2 cm square sections. The skin was mounted with the epidermis side toward the donor chamber in the Permeagear 0.9 cm diameter side-by-side diffusion cells.
A solution of 2% zolmitriptan was made by dissolving zolmitriptan in 0.1 N HCl. A 4% sumatriptan solution was made by dissolving sumatriptan in 0.1% NaCl. The 4% rizatriptan solution was made by dissolving the rizatriptan in 0.1% NaCl
Three cells were dosed with 2% zolmitriptan, three cells were dosed with 4% rizatriptan, and two cells were dosed with 4% sumatriptan. Normal saline solution was used as the receiver solution. The cells were clamped at 1.27 mAmp (2 mAmp/cm^2). 2 ml of each receiver compartment was sampled every 30 minutes and replaced with normal saline solution. One cell of the rizatriptan iontophoresis and one cell of sumatriptan iontophoresis were lost during the study due to holes in the skin.
Each 2 ml sample was diluted 1 to 100 with water. Zolmitriptan and sumatriptan were assayed by UV at 222 nm and 282 nm respectively. Rizatriptan was assay by HPLC as previously described.

[4] = Permeation of formulated product through human cadaver skin (iontophoresis, gel formulations); assay type: in vitro ADME; settings: for Lag time: human cadaver skin, gel with 3.4% lauric acid, 2 mAmp/cm^2
Procedure: Brij 30 (Laureth-4) and adipic acid were obtained from Fisher Scientific. Eudragit E*PO was obtained from Evonik. Human cadaver skin was thawed in 0.9% NaCl for 30 minutes and patted dry. The skin was cut into 2 cm square sections. The epidermis was placed towards the donor compartment of a […] PermeGear side-by-side diffusion cell. The donor gel was placed in the donor compartment and 3 ml of normal saline solution was placed in the receiver compartment. Three cells were dosed with zolmitriptan with 3.4% lauric acid, three cells were dosed with rizatriptan with 3.4% lauric acid and two cells were dosed with rizatriptan with 3.4% Brij 30. The cells were clamped at 1.27 mAmp (2 mAmp/cm^2). Two ml of each receiver compartment was sampled every 30 minutes and replaced with normal saline solution. Each 2 ml sample was diluted 1 to 100 with water. Zolmitriptan and sumatriptan were assayed by UV at 222 nm Rizatriptan was assayed by HPLC as previously described. Additional analysis of the permeation data was conducted to find the amount of time to dose 5 mg of drug based on reasonable patch areas, and is shown in Table 4. […] However, as was observed by the previous permeation data, zolmitriptan would need a total of 43 minutes when the lag-time is considered compared to 19 minutes for rizatriptan when the lag time is considered.

[5] = Oxidation stability for rizatriptan under 2 mA current; assay type: physicochemical; settings: for Rizatriptan concentration after exposure to 2 mAmp current: 0.9% NaCl
Procedure: A drug stock solution was made by dissolving 2.8 mg of rizatriptan benzoate in 0.9% NaCl to a volume of 50 mL. The working standard was prepared by diluting 0.5 ml of the stock solution to 10 ml with 0.9% NaCl. This produced a final concentration of 2.8 mcg/ml, for the working standard.
A solution was made by dissolving 0.5000 g of rizatriptan benzoate in 0.9% NaCl to a final volume of 50 mL. A 1 ml sample of this solution was kept for future assay. The remaining solution was placed in a beaker covered with parafilm Zinc wire (Cathode) and silver wire (anode) were passed through the parafilm and placed in the drug solution. Current of 2 mA was passed through the solution. Samples of 1 mL each were withdrawn every 30 minutes for 5.5 hours.
A 0.1 mL volume from each sample was diluted with 15 mL of 0.9% NaCl. A 1 ml volume of this dilution was then further diluted to 10 ml using 0.9% NaCl. Similarly, a 0.1 ml volume of the initial solution was diluted with 15 mL of 0.9% NaCl. A 1 ml volume of this dilution was then diluted to 10 ml with 0.9% NaCl.

[6] = Iontophoresis properties (charge and molecular weight analysis); assay type: physicochemical
Text: This is because the diffusion and permeation through a hydrophilic membrane are dependent on molecular weight, radius of the molecule and the ionic drag the molecule has with the membrane.

[7] = 1000 mwco dialysis membrane, 33° C., UV assay
[8] = 1000 mwco dialysis membrane, 33° C., UV assay, listed as ketoprofen

Compound: CC(C(=O)O)c1cccc(C(=O)c2ccccc2)c1 (centres unmarked) [Ketoprofen]
Flux, Iontophoresis (2 mAmp/cm^2) [1, 7]: 8.24 mcg/cm^2/min
Flux, Passive diffusion (No current) [1, 7]: 7.41 mcg/cm^2/min
Flux, Reversed Electrodes (Current reversed at 2 mAmp/cm^2) [1, 7]: 11.66 mcg/cm^2/min
Flux, Iontophoresis (2 mAmp/cm^2) [1, 8]: less than the passive diffusion
Flux, Passive diffusion (No current) [1, 8]: substantial
Flux, Reversed Electrodes (Current reversed at 2 mAmp/cm^2) [1, 8]: greatest flux
Ratio of Iontophoresis to Passive Diffusion ([1]; 1000 mwco dialysis membrane, UV assay): 1.6

Compound: CCCCCCCCCCCC(=O)O [Lauric acid]
pKa [2]: around 4.9

Compound: CN(C)CCc1c[nH]c2ccc(Cn3cncn3)cc12 [Rizatriptan]
Skin permeation by iontophoresis [3]: greater skin permeation than sumatriptan and zolmitriptan
Lag time [4]: 9 min
Total time to deliver 5 mg when the lag time is considered [4]: 19 min
Time in which a dose (5 mg) can be delivered ([4]; suggested by the results of the formulation studies): about 45 minutes
Rizatriptan concentration after exposure to 2 mAmp current ([5]; 0 min): 10.000 mg/mL
Exposure time after which degradation becomes significant ([5]; 2 mA current): > 4 h
Rate of degradation ([5]; 2 mA current, regression with all data): ~16 µg/mL/min
Rizatriptan concentration after exposure to 2 mAmp current ([5]; 30 min): 10.041 mg/mL
Rizatriptan concentration after exposure to 2 mAmp current ([5]; 60 min): 9.829 mg/mL
Rizatriptan concentration after exposure to 2 mAmp current ([5]; 90 min): 9.909 mg/mL
Rizatriptan concentration after exposure to 2 mAmp current ([5]; 120 min): 9.782 mg/mL
Rizatriptan concentration after exposure to 2 mAmp current ([5]; 150 min): 9.942 mg/mL
Rizatriptan concentration after exposure to 2 mAmp current ([5]; 180 min): 9.875 mg/mL
Rizatriptan concentration after exposure to 2 mAmp current ([5]; 210 min): 9.801 mg/mL
Rizatriptan concentration after exposure to 2 mAmp current ([5]; 240 min): 9.758 mg/mL
Rizatriptan concentration after exposure to 2 mAmp current ([5]; 270 min): 9.963 mg/mL
Rizatriptan concentration after exposure to 2 mAmp current ([5]; 300 min): 9.216 mg/mL
Rizatriptan concentration after exposure to 2 mAmp current ([5]; 330 min): 9.389 mg/mL
Degradation ([5]; during the 5.5 hour exposure to 2 mA current): approximately 7%
Ionizable Nitrogens [6]: 3
MW/charge Ratio [6]: 89.8

More lines, main results first:

Flux, Passive diffusion (No current) ([1]; not told): 0.58 mcg/cm^2/min
Flux, Reversed Electrodes (Current reversed at 2 mAmp/cm^2) ([1]; not told): 0.11 mcg/cm^2/min
Ionizable Nitrogens [6]: 2
MW/charge Ratio [6]: 147.7
Compound: CNS(=O)(=O)Cc1ccc2[nH]cc(CCN(C)C)c2c1 [Sumatriptan]

Flux, Passive diffusion (No current) ([1]; not told): 3.32 mcg/cm^2/min
Flux, Reversed Electrodes (Current reversed at 2 mAmp/cm^2) ([1]; not told): 0.05 mcg/cm^2/min
Ratio of Iontophoresis to Passive Diffusion ([1]; not told): 11.5
Lag time [4]: 20 min
Total time to deliver 5 mg when the lag time is considered [4]: 43 min
Ionizable Nitrogens [6]: 3
MW/charge Ratio [6]: 92.8
Compound: CN(C)CCc1c[nH]c2ccc(C[C@H]3COC(=O)N3)cc12 [Zolmitriptan]
Skin permeation by iontophoresis [3]: very comparable to the permeation of sumatriptan via iontophoresis

— patent publication US20110087153A1, “Transdermal Methods And Systems For The Delivery Of Rizatriptan” (priority 2009, published 2011)
